Reference: patent publication US20150299125A1, “PRODRUG BIPYRIDYLAMINOPYRIDINES AS SYK INHIBITORS” (MERCK SHARP & DOHME CORP., priority 2012, published 2015)

Molecular target: T1, recombinant human GST-Syk (Homo sapiens, UniProt P43405)
T1 construct: purchased Carna Biosciences 08-176
Assay: Homogeneous Time-Resolved Fluorescence (HTRF) assay for the recombinant human Syk enzyme
Type: biochemical
Conditions: recombinant human GST-Syk 5 pM, ATP 25 μM, read-out: IC50
Protocol: Syk inhibition of the compounds of Formula (I) may be determined using the following assay protocol: Homogeneous Time-Resolved Fluorescence (HTRF) Assay for the Recombinant Human Syk Enzyme: A recombinant GST-hSyk fusion protein was used to measure potency of compounds to inhibit human Syk activity. […] Final volume of the reaction was 10 μL. Phosphorylation of the peptide was allowed to proceed for 45' at room temperature. To quench the reaction and detect the phosphorylated product, 2 nM of a Europium-anti-phosphotyrosine antibody (Perkin Elmer #AD0161) and 70 nM SA-APC (Perkin-Elmer #CR130-100) were added together in 15 mM Tris pH 7.5, 40 mM EDTA, 0.01% tween 20. Final volume of the quenching solution was 10 μL. The resulting HTRF signal was measured after 30 minutes on a EnVision (Perkin-Elmer) reader using a time-resolved fluorescence protocol.

Row | Structure (SMILES) | IC50 [nM]
1 | CCOCCOCCOCCOC(=O)OCOC(=O)[C@H]1CC[C@H]([C@@](C)(O)c2ccc(-c3cc(C)cc(Nc4cc(C(F)F)ccn4)n3)cn2)CC1 [Example 2-5, 3-oxo-2,4,7,10,13-pentaoxapentadec-1-yl trans-4-[(1R)-1-(6-{[4-(difluoromethyl)pyridin-2-yl]amino}-4-methyl-2,3′-bipyridin-6′-yl)-1-hydroxyethyl]cyclo hexanecarboxylate] | 7.5
2 | Cc1cc(Nc2cc(C(F)F)ccn2)nc(-c2ccc([C@](C)(O)[C@H]3CC[C@H](C(=O)OC[N+]4(C)CCN(CCO)CC4)CC3)nc2)c1 [Example 5-28, 1-{[({trans-4-[(1R)-1-(6-{[4-(difluoromethyl)pyridin-2-yl]amino}-4-methyl-2,3′-bipyridin-6′-yl)-1-hydroxyethyl]cyclohexyl}carbonyl)oxy]methyl}-4-(2-hydroxyethyl)-1-methylpiperazin-1-ium] | 2.9
3 | CCOCC(COCC)OC(=O)OCOC(=O)[C@H]1CC[C@H]([C@@](C)(O)c2ccc(-c3cc(C)cc(Nc4cc(C(F)F)ccn4)n3)cn2)CC1 [Example 2-8, ({[2-ethoxy-1-(ethoxymethyl)ethoxy]carbonyl}oxy) methyl trans-4-[(1R)-1-(6-{[4-(difluoromethyl)pyridin-2-yl]amino}-4-methyl-2,3′-bipyridin-6′-yl)-1-hydroxyethyl]cyclo hexanecarboxylate] | 22.8
4 | Cc1cc(Nc2cc(C(F)F)ccn2)nc(-c2ccc([C@](C)(O)[C@H]3CC[C@H](C(=O)OC[C@@H](O)CO)CC3)nc2)c1 [Example 1-3, (2S)-2,3-Dihydroxypropyl trans-4-[(1R)-1-(6-{[4-(difluoromethyl)pyridin-2-yl]amino}-4-methyl-2,3′-bipyridin-6′-yl)-1-hydroxyethyl]cyclohexanecarboxylate] | 2.5
5 | COc1ccc(OC(=O)[C@H]2CC[C@H]([C@@](C)(O)c3ccc(-c4cc(C)cc(Nc5cc(C(F)F)ccn5)n4)cn3)CC2)cc1 [Example 1-28, 4-methoxyphenyl trans-4-[(1R)-1-(6-{[4-(difluoromethyl)pyridin-2-yl]amino}-4-methyl-2,3′-bipyridin-6′-yl)-1-hydroxyethyl] cyclohexanecarboxylate] | 7.2

Other lines, results leading:

Row | IC50 [nM] | Structure (SMILES)
6 | < 0.5 | CSCCOC(=O)OCOC(=O)[C@H]1CC[C@H]([C@@](C)(O)c2ccc(-c3cc(C)cc(Nc4cc(C(F)F)ccn4)n3)cn2)CC1 [Example 2-10, ({[2-(methylsulfanyl)ethoxy]carbonyl}oxy) methyl trans-4-[(1R)-1-(6-{[4-(difluoromethyl)pyridin-2-yl]amino}-4-methyl-2,3′-bipyridin-6′-yl)-1-hydroxyethyl]cyclo hexanecarboxylate]
7 | 2.3 | Cc1cc(Nc2cc(C(F)F)ccn2)nc(-c2ccc([C@](C)(O)[C@H]3CC[C@H](C(=O)OCOC(=O)C(C)(C)O)CC3)nc2)c1 [Example 3-3, [(2-Hydroxy-2-methylpropanoyl)oxy]methyl trans-4-[(1R)-1-(6-{[4-(difluoromethyl)pyridin-2-yl]amino}-4-methyl-2,3′-bipyridin-6′-yl)-1-hydroxyethyl]cyclohexanecarboxylate]
8 | 4.5 | Cc1cc(Nc2cc(C(F)F)ccn2)nc(-c2ccc([C@](C)(O)[C@H]3CC[C@H](C(=O)OCOC(=O)OCCS(C)(=O)=O)CC3)nc2)c1 [Example 7-7, ({[2-(methylsulfonyl)ethoxy]carbonyl}oxy)methyl trans-4-[(1R)-1-(6-{[4-(difluoromethyl)pyridin-2-yl]amino}-4-methyl-2,3′-bipyridin-6′-yl)-1-hydroxyethyl]cyclohexane-carboxylate]
9 | 1.5 | Cc1cc(Nc2cc(C(F)F)ccn2)nc(-c2ccc([C@](C)(O)[C@H]3CC[C@H](C(=O)OCOC(=O)OCCC(=O)N(C)C)CC3)nc2)c1 [Example 2-12, ({[3-(dimethylamino)-3-oxopropoxy]carbonyl}oxy)methyl trans-4-[(1R)-1-(6-{[4-(difluoromethyl)pyridin-2-yl]amino}-4-methyl-2,3′-bipyridin-6′-yl)-1-hydroxyethyl]cyclo hexanecarboxylate]
